These are literature values, as cited in publication PMC11756063, “The fibronectin-targeting PEG-FUD imaging probe shows enhanced uptake during fibrogenesis in experimental lung fibrosis” (Respiratory Research, 2025).

This series relates to fibrotic mouse lung. The note with it: ref [9], [13], [65]. An excerpt: This study has potential impact for the field of molecular imaging of lung fibrosis, as methods that permit more precise and intricate assessment of disease progression are needed in clinical practice. In pulmonary fibrosis, potential molecular imaging targets being developed represent various disease mechanisms, such as activity of pathogenic fibroblasts and macrophages, ECM deposition, as well as detection of pro-fibrotic integrins.

`OC[C@H]1OC(O)[C@H]([18F])[C@@H](O)[C@@H]1O` (stereo partly shown) [[^18F]FDG, [^18F]-fluorodeoxyglucose]: the “pattern of uptake over the bleomycin model” value is “peak uptake in the early phase of the bleomycin model that decline during the established phase”.
